From patent US5300629A, “Bactericidal and/or bacteriostatic peptides isolated from hemolymph of honeybees” (Plant Genetic Systems, N.V., priority 1987, dated 1994)
Where a SMILES comes first, the peptide text is derived from it.

Tests used:
Assay type in all cases: cell-based
[1] = test system: Rhizobium meliloti ZB 314; experiment: Minimal inhibitory concentration in liquid culture; settings: 200 μl rich medium, 10^4 log-phase bacteria
[2] = test system: Xanthomonas campestris pv. vesicatoria LMG 905; experiment: Minimal inhibitory concentration in liquid culture; settings: 200 μl rich medium, 10^4 log-phase bacteria, + = no inhibition at maximal value
Protocol: (§1) In addition the exact concentration was determined precisely by amino-acid analysis and an equal sample of natural Bee 6b was prepared, allowing to compare the bactericidal activity of both natural and synthetic apidaecins by means of growth inhibition assays in liquid cultures (see mat & Meth.). The minimal inhibitory concentrations (μg/ml) were determined in liquid culture : 200 μl of a rich medium (trypticase soy broth or nutrient broth) was inoculated with 10^4 log-phase bacteria. Peptide concentrations ranged between 0 and 200 μg/ml. The values express μg/ml; when no inhibition was noticed the maximal values are given (+200 μg/ml or +50 μg/ml). All peptides were chemically synthesized, except for bee 6b which is purified from bee lymph.

[3] = test system: Corynebacterium michiganense pv. michiganense NCPPB 1573; experiment: Minimal inhibitory concentration in liquid culture; settings: 200 μl rich medium, 10^4 log-phase bacteria, + = no inhibition at maximal value
Protocol: as §1

[4] = test system: Corynebacterium insidiosum NCPPB 1109; experiment: Minimal inhibitory concentration in liquid culture; settings: 200 μl rich medium, 10^4 log-phase bacteria
Protocol: as §1

Shigella flexneri CP 87 = experiment: Minimal inhibitory concentration in liquid culture; settings: 200 μl rich medium, 10^4 log-phase bacteria
Protocol: as §1

[5] = test system: Citrobacter freundii ATCC 8090; experiment: Minimal inhibitory concentration in liquid culture; settings: 200 μl rich medium, 10^4 log-phase bacteria
[6] = test system: Agrobactierium tumefaciens DSM 3129; experiment: Minimal inhibitory concentration in liquid culture; settings: 200 μl rich medium, 10^4 log-phase bacteria
[7] = test system: Erwinia salicis NCPPB 2530; experiment: Minimal inhibitory concentration in liquid culture; settings: 200 μl rich medium, 10^4 log-phase bacteria
[8] = test system: Pseudomonas syringae pv. tabaci NCPPB 1237; experiment: Minimal inhibitory concentration in liquid culture; settings: 200 μl rich medium, 10^4 log-phase bacteria
[9] = test system: Pseudomonas syringae pv. maculicola NCPPB 1776; experiment: Minimal inhibitory concentration in liquid culture; settings: 200 μl rich medium, 10^4 log-phase bacteria
[10] = test system: Bacillus megaterium QB 1551; experiment: Minimal inhibitory concentration in liquid culture; settings: 200 μl rich medium, 10^4 log-phase bacteria, + = no inhibition at maximal value
[11] = test system: Pseudomonas syringae pv. tomato NCPPB 1106; experiment: Minimal inhibitory concentration in liquid culture; settings: 200 μl rich medium, 10^4 log-phase bacteria
[12] = test system: Salmonella typhimurium ATCC 23565; experiment: Minimal inhibitory concentration in liquid culture; settings: 200 μl rich medium, 10^4 log-phase bacteria
[13] = test system: Xanthomonas campestris pv. campestris A 902; experiment: Minimal inhibitory concentration in liquid culture; settings: 200 μl rich medium, 10^4 log-phase bacteria, + = no inhibition at maximal value
[14] = test system: Bacillus subtilis NRRL-B-237; experiment: Minimal inhibitory concentration in liquid culture; settings: 200 μl rich medium, 10^4 log-phase bacteria, + = no inhibition at maximal value
Salmonella Newport CD 94 = experiment: Minimal inhibitory concentration in liquid culture; settings: 200 μl rich medium, 10^4 log-phase bacteria
Bacillus alvei LMG 6922 = experiment: Minimal inhibitory concentration in liquid culture; settings: 200 μl rich medium, 10^4 log-phase bacteria, + = no inhibition at maximal value
[15] = test system: Escherichia coli NCTC 9001; experiment: Minimal inhibitory concentration in liquid culture; settings: 200 μl rich medium, 10^4 log-phase bacteria
[16] = test system: Erwinia carotovora var atroseptica LMG 2385; experiment: Minimal inhibitory concentration in liquid culture; settings: 200 μl rich medium, 10^4 log-phase bacteria
E. coli NCTC 9001 = experiment: Bactericidal activity, method not stated; settings: lyophilized apidaecins resuspended in PBS
[17] = test system: Erwinia carotovora var carotovora NCPPB 312; experiment: Minimal inhibitory concentration in liquid culture; settings: 200 μl rich medium, 10^4 log-phase bacteria
[18] = test system: Pseudomonas solanacearum ATCC 11696; settings: 200 μl rich medium, 10^4 log-phase bacteria
[19] = test system: Xanthomonas campestris pv. graminis NCPPB 2700; experiment: Inhibition zone assay; set-up: key: --: "-" means that no inhibition has been found; settings: I and B 10 ul, L 5 ug
[20] = test system: Flavobacterium devorans NRRL B-54; experiment: Inhibition zone assay; set-up: key: --: "-" means that no inhibition has been found; settings: I and B 10 ul, L 5 ug
[21] = test system: Micrococcus lysodeikticus LMG 4050; experiment: Inhibition zone assay; settings: I and B 10 ul, L 5 ug
[22] = test system: Xanthomonas campestris pv. oryzae IRN 235; set-up: key: --: "-" means that no inhibition has been found
[23] = test system: Rhodococcus equi ATCC 25729; experiment: Inhibition zone assay; settings: I and B 10 ul, L 5 ug
[24] = test system: Rhizobium meliloti ZB 314; experiment: Inhibition zone assay; set-up: key: --: "-" means that no inhibition has been found; settings: I and B 10 ul, L 5 ug
[25] = test system: Serratia fonticola ATCC 298449; experiment: Inhibition zone assay; set-up: key: --: "-" means that no inhibition has been found; settings: I and B 10 ul, L 5 ug
[26] = test system: Serratia liquefaciens DSM 30125; experiment: Inhibition zone assay; set-up: key: --: "-" means that no inhibition has been found; settings: I 10 ul, L 5 ug
[27] = test system: Bordetella bronchiseptica ATCC 19395; experiment: Inhibition zone assay; set-up: key: --: "-" means that no inhibition has been found; settings: I and B 10 ul, L 5 ug
[28] = test system: Janthinobacterium lividum Sneath HB; experiment: Inhibition zone assay; set-up: key: --: "-" means that no inhibition has been found; settings: I and B 10 ul, L 5 ug
[29] = test system: Bacillus thuringiensis DSM 3131; experiment: Inhibition zone assay; set-up: key: --: "-" means that no inhibition has been found; settings: I and B 10 ul, L 5 ug
[30] = test system: Erwinia salicis NCPPB 2530; experiment: Inhibition zone assay; set-up: key: --: "-" means that no inhibition has been found; settings: I and B 10 ul, L 5 ug
[31] = test system: Pseudomonas cepacia ATCC 25416; experiment: Inhibition zone assay; set-up: key: --: "-" means that no inhibition has been found; settings: I and B 10 ul, L 5 ug
[32] = test system: Pseudomonas paucimobilis ATCC 29837; experiment: Inhibition zone assay; set-up: key: --: "-" means that no inhibition has been found; settings: L 5 ug
[33] = test system: Xanthomonas campestris pv. vesicatoria XV82-4; experiment: Inhibition zone assay; set-up: key: --: "-" means that no inhibition has been found; settings: I and B 10 ul, L 5 ug
[34] = test system: Klebsiella aerogenes 1961 E; experiment: Inhibition zone assay; set-up: key: --: "-" means that no inhibition has been found; settings: I and B 10 ul, L 5 ug
[35] = test system: Bacillus subtilis NRRL B-237; experiment: Inhibition zone assay; set-up: key: --: "-" means that no inhibition has been found; settings: I and B 10 ul, L 5 ug
[36] = test system: Agrobacterium radiobacter ATCC 19358; experiment: Inhibition zone assay; set-up: key: --: "-" means that no inhibition has been found; settings: I and B 10 ul, L 5 ug
[37] = test system: Corynebacterium fascians NCPPB 1488; experiment: Inhibition zone assay; set-up: key: --: "-" means that no inhibition has been found; settings: I and B 10 ul, L 5 ug
[38] = test system: Bacillus megaterium QMB 1551; experiment: Inhibition zone assay; settings: I and B 10 ul, L 5 ug
[39] = test system: Agrobacterium tumefaciens DSM 3129; experiment: Inhibition zone assay; set-up: key: --: "-" means that no inhibition has been found; settings: I and B 10 ul, L 5 ug
[40] = test system: Agrobacterium rhizogenes ATCC 11325; experiment: Inhibition zone assay; set-up: key: --: "-" means that no inhibition has been found; settings: I and B 10 ul, L 5 ug
[41] = test system: Staphylococcus hominis STH B3; experiment: Inhibition zone assay; set-up: key: --: "-" means that no inhibition has been found; settings: L 5 ug
[42] = test system: Pseudomonas acidovorans CuETM 83-109; experiment: Inhibition zone assay; set-up: key: --: "-" means that no inhibition has been found; settings: I and B 10 ul, L 5 ug
[43] = test system: Erwinia carotovora var. atroseptica NCPPB 549; experiment: Inhibition zone assay; set-up: key: --: "-" means that no inhibition has been found; settings: I and B 10 ul, L 5 ug
[44] = test system: Pseudomonas aureofaciens CCEB 518; experiment: Inhibition zone assay; set-up: key: --: "-" means that no inhibition has been found; settings: I and B 10 ul, L 5 ug
[45] = test system: Rhizobium phaseoli CIAT 899; experiment: Inhibition zone assay; set-up: key: --: "-" means that no inhibition has been found; settings: I and B 10 ul, L 5 ug
[46] = test system: Listeria monocytogenes B5; experiment: Inhibition zone assay; set-up: key: --: "-" means that no inhibition has been found; settings: L 5 ug
[47] = test system: Proteus morganii CuETM 77-83; experiment: Inhibition zone assay; set-up: key: --: "-" means that no inhibition has been found; settings: I and B 10 ul, L 5 ug
[48] = test system: Serratia plymuthica ATCC 183; experiment: Inhibition zone assay; set-up: key: --: "-" means that no inhibition has been found; settings: I and B 10 ul, L 5 ug
[49] = test system: Azospirillum lipoferum ATCC 29707; experiment: Inhibition zone assay; set-up: key: --: "-" means that no inhibition has been found; settings: I and B 10 ul, L 5 ug
[50] = test system: Corynebacterium insidiosum NCPPB 1109; experiment: Inhibition zone assay; settings: I and B 10 ul, L 5 ug
Protocol: Whole lymph or purified components, resuspended in PBS to a final volume equal to the starting material (heated lymph), was applied in 3 mm wells on agar plates seeded with the test organisms. Antibacterial activity was determined by measuring the growth-inhibition zones (in mm).

[51] = test system: Enterobacter agglomerans Gilardi 1081; experiment: Inhibition zone assay; set-up: key: --: "-" means that no inhibition has been found; settings: I and B 10 ul, L 5 ug

CC[C@H](C)[C@H](NC(=O)[C@@H]1CCCN1C(=O)[C@H](CCCNC(=N)N)NC(=O)[C@H](CC(N)=O)NC(=O)[C@H](CC(N)=O)NC(=O)CN)C(=O)N[C@@H](Cc1ccc(O)cc1)C(=O)N[C@H](C(=O)N1CCC[C@H]1C(=O)N[C@@H](CCC(N)=O)C(=O)N1CCC[C@H]1C(=O)N[C@@H](CCCNC(=N)N)C(=O)N1CCC[C@H]1C(=O)N1CCC[C@H]1C(=O)N[C@@H](Cc1c[nH]cn1)C(=O)N1CCC[C@H]1C(=O)N[C@@H](CCCNC(=N)N)C(=O)N[C@@H](CC(C)C)C(=O)O)[C@@H](C)CC [Apid II] (H-GNNRPIYIPQPRPPHPRL-OH)
2.5 µg/mL: minimal inhibitory concentration [17]
> 200 µg/mL: minimal inhibitory concentration [14] | minimal inhibitory concentration (Bacillus alvei LMG 6922)
1 µg/mL: minimal inhibitory concentration [8]
> 50 µg/mL: minimal inhibitory concentration [2] | minimal inhibitory concentration [3]
possessed a bactericidal activity: bactericidal activity (E. coli NCTC 9001)
0.5 µg/mL: minimal inhibitory concentration [9] | minimal inhibitory concentration [16]
50 µg/mL: minimal inhibitory concentration [13]
0.02 µg/mL: minimal inhibitory concentration [1] | minimal inhibitory concentration [7]
100 µg/mL: minimal inhibitory concentration [4] | minimal inhibitory concentration [10]
10 µg/mL: minimal inhibitory concentration [18]
0.1 µg/mL: minimal inhibitory concentration (Shigella flexneri CP 87) | minimal inhibitory concentration [11] | minimal inhibitory concentration [12]
0.2 µg/mL: minimal inhibitory concentration [5] | minimal inhibitory concentration [6] | minimal inhibitory concentration (Salmonella Newport CD 94) | minimal inhibitory concentration [15]

chicken lysozyme: hen egg white lysozyme, comparison [reference compound]
4 mm: diameter of growth-inhibition zone [23]
9 mm: diameter of growth-inhibition zone [21]
6 mm: diameter of growth-inhibition zone [38] | diameter of growth-inhibition zone [50]
--: diameter of growth-inhibition zone [19] | diameter of growth-inhibition zone [20] | diameter of growth-inhibition zone [22] | diameter of growth-inhibition zone [24] | diameter of growth-inhibition zone [25] | diameter of growth-inhibition zone [26] | diameter of growth-inhibition zone [27] | diameter of growth-inhibition zone [28] | diameter of growth-inhibition zone [29] | diameter of growth-inhibition zone [30] | diameter of growth-inhibition zone [31] | diameter of growth-inhibition zone [32] | diameter of growth-inhibition zone [33] | diameter of growth-inhibition zone [34] | diameter of growth-inhibition zone [35] | diameter of growth-inhibition zone [36] | diameter of growth-inhibition zone [37] | diameter of growth-inhibition zone [39] | diameter of growth-inhibition zone [40] | diameter of growth-inhibition zone [41] | diameter of growth-inhibition zone [42] | diameter of growth-inhibition zone [43] | diameter of growth-inhibition zone [44] | diameter of growth-inhibition zone [45] | diameter of growth-inhibition zone [46] | diameter of growth-inhibition zone [47] | diameter of growth-inhibition zone [48] | diameter of growth-inhibition zone [49] | diameter of growth-inhibition zone [51]
